Patent publication US20040072737A1, “Echinocandin derivatives, their method of preparation and their application as anti-fungal agents” (Aventis Pharma S.A., priority 1997, published 2004)

test system: Glucane Synthesis of Candida Albicans (membranes of Candida albicans); test: Inhibition of the glucane synthesis of Candida albicans (14C-UDP glucose incorporation by purified membranes); format: biochemical; details: Candida albicans membrane proteins, 25° C., 1 hour, result in words
Procedure: A—Inhibition of the Glucane Synthesis of Candida Albicans.
The membranes of Candida albicans are purified according to the process described by Tang and al Antimicrob. Agents Chemother 35, 99-103, 1991. 22.5 μg of membrane proteins are incubated in a mixture of 2 Mm of 14C-UDP glucose (specific activity=0.34 mCi./mmol, 50 μg of α-amylase, 1 Mm of dithiotreitol (DTT), 1 Mm EDTA, 100 Mm NaF, 7 μM of GTP-γ-S, 1M of sucrose and 5 oMm OF Ttris-HCL (pH 7.8) in a volume of 100 μl. The medium is incubated at 25° C. for 1 hour and the reaction terminated by addition of TCA to a final concentration of 5%. The reaction medium is transferred onto a pre-humidified glass fibre filter. The filter is washed, dried and its radioactivity is counted.
Mulundocandin is used as positive control.
The control of the medium is carried out with the same quantity of DMSO 1%.

Substance | Inhibition of the glucane synthesis of Candida albicans
Trifluoroacetate of 1-[4-[(2-aminoethyl) amino]N2-[[4′-(octyloxy)[1.1′-biphenyl]-4-[carbonyl]-L-ornithine]4-[4-(4-(4-hydroxyphenyl)-L-threonine]-5-L serine echinocandin B (isomer A) [Example 14] | good activity
Trifluoroacetate of 1-[4-[(2-aminoethyl) amino]-N2-(12-methyl-1-oxotetradecyl)-L-ornithine]4-[4-(4-hydroxyphenyl)-L-threonine]-5-L serine echinocandin B (isomer A and isomer B) [Example 9] | good activity
(±) Trifluoroacetate of 1-[4-[(aminoiminomethyl) hydrazono]-N2-(12-methyl-1-oxotetradecyl)-L-ornithine]4-[4-(4-hydroxyphenyl)-L-threonine]-5-L serine echinocandin B [Example 11] | good activity
